Values quoted from earlier work, collected in patent US20160250154A1, “FILM DELIVERY SYSTEM FOR ACTIVE INGREDIENTS” (MonoSol Rx, LLC, priority 2013, published 2016).

Conditions: MSDS from PI Chemical

SMILES: CCCCCCCCCCC(=O)O[C@H]1CC[C@H]2[C@@H]3CCC4=CC(=O)CC[C@]4(C)[C@H]3CC[C@]12C [Testosterone Undecanoate]
- classification of solubility in water: insoluble in water
